Some results are limits rather than exact numbers.

In one assay the target is T1, KRASwt (Homo sapiens, UniProt P01116).
T1 construct: made in house; host or cells: E. coli BL21 (DE3)
In words: Bio-Biochem-PPI-HTRF Ras-SOS1 interaction assay (KRAS wt). Format: biochemical. The conditions noted are these: 5 nM. As for the experimental part:
(§1) The assay buffer can contain −5 mM HEPES pH 7.4, ˜150 mM NaCl, ˜ 1 mM DTT, 0.05% BSA and 0.0025% (v/v) Igepal. A Ras working solution is prepared in an assay buffer containing typically a suitable amount of the protein construct (e.g., GST-tagged K-Ras mutant) and the FRET donor (e.g., antiGST-Eu(K) from Cisbio, France). A SOS1 working solution is prepared in an assay buffer containing suitable amount of the protein construct (e.g., His-hSOS1) and the FRET acceptor (e.g., anti-6His-XL665 from Cisbio, France). A suitable amount of the protein construct will depend on the range of activity or range of IC50 values being detected or under investigation. For detecting IC50 within a range of 500 nM, the protein constructs of the same range of molarity can be utilized. […] A fixed volume of DMSO with or without test compound is transferred into a 384-well plate. Ras working solution is added to all wells of the test plate. SOS1 working solution is added to all wells except for those that are subsequently filled the inhibitor control solution. Upon incubation for about 10 minutes or longer, the fluorescence is measured with a M1000Pro plate reader (Tecan) using HTRF detection (excitation 337 nm, emission 1:620 nm, emission 2: 665 nm). Compounds are tested in duplicates at different concentrations (for example, 10 μM, 2.5 μM, 0.63 μM, 0.16 μM, 0.04 μM, 0.01 μM test compound). The ratiometric data (i.e., emission 2 divided by emission 1) is used to calculate IC50 values against Ras using GraphPad Prism (GraphPad software). Following this general procedure, samples were tested with or without a subject compound disclosed herein including compounds exemplified in Table 1 to assess their abilities to inhibit a mutant K-Ras relative to another mutant K-Ras or wildtype K-Ras. Signaling output measured in terms of IC50 values can be obtained, a ratio of IC50 against one mutant relative to another mutant can be calculated. For instance, a selective reduction of K-Ras G12D signaling output can be evidenced by a ratio greater than one. In particular, a selective reduction of K-Ras G12D signaling relative to K-Ras WT signaling is evidenced as the ratio of IC50 (against K-Ras WT) to IC50 (against K-Ras G12D) is greater than 1.
On the technique in general: In TR-FRET formats the signal depends on donor and acceptor labels being close together.

The target of a further assay is T2, KRASG12D (Homo sapiens, UniProt P01116, G12D).
T2 construct: made in house; host or cells: E. coli BL21 (DE3)
T2 sequence (P01116 1-188 isoform P01116-2 G12D): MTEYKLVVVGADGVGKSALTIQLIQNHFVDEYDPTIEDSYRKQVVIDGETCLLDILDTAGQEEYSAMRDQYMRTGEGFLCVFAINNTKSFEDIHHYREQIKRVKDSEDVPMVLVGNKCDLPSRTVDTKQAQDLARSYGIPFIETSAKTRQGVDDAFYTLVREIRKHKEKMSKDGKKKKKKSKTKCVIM
In words: Bio-Biochem-PPI-HTRF Ras-SOS1 interaction assay (KRAS G12D). Format: biochemical. Particulars: 5 nM. On the procedure: as §1

T1 sequence (P01116 1-188 isoform P01116-2): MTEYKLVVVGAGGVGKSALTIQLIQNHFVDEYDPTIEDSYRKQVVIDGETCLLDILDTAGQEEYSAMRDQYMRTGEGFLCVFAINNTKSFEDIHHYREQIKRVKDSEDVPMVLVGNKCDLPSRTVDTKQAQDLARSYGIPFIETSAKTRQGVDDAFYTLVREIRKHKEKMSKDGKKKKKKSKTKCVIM

By IC50 is commonly meant the concentration that gives 50% inhibition. Read a low IC50 as inhibition by little substance. `N#Cc1c(N)sc2c(F)ccc(-c3c(Cl)cc4c(N5CCCCC6(CN(C(=O)[C@@H]7CCCN7)C6)C5)nc(OC[C@@]56CCCN5C[C@H](F)C6)nc4c3F)c12` [compound 296, 4-(4-(2-(L-prolyl)-2,6-diazaspiro[3.6]decan-6-yl)-6-chloro-8-fluoro-2-(((2R,7aS)-2-fluorotetrahydro-1H-pyrrolizin-7a(5H)-yl)methoxy)quinazolin-7-yl)-2-amino-7-fluorobenzo[b]thiophene-3-carbonitrile]: the IC50 against KRASwt and against KRASG12D was below 5 µM in each case.

Consider `CC(=O)N1CC2(CCCCN(c3nc(OC[C@@]45CCCN4C[C@H](F)C5)nc4c(F)c(-c5ccc(F)c6sc(N)c(C#N)c56)c(Cl)cc34)C2)C1` [compound 338, 4-(4-(2-acetyl-2,6-diazaspiro [3.6]decan-6-yl)-6-chloro-8-fluoro-2-(((2R,7aS)-2-fluorotetrahydro-1H-pyrrolizin-7a(5H)-yl)methoxy)quinazolin-7-yl)-2-amino-7-fluorobenzo[b]thiophene-3-carbonitrile], for which the IC50 at KRASwt and against KRASG12D was below 5 µM each time.

For `C#Cc1c(F)ccc2cc(O)cc(-c3ncc4c(N5CCCC6(CN(C(=O)[C@@H]7C[C@H]7C#N)C6)C5)nc(OC[C@@]56CCCN5C[C@H](F)C6)nc4c3F)c12` [compound 164, (1R,2R)-2-(6-(7-(8-ethynyl-7-fluoro-3-hydroxynaphthalen-1-yl)-8-fluoro-2-(((2R,7aS)-2-fluorotetrahydro-1H-pyrrolizin-7a(5H)-yl)methoxy)pyrido [4,3-d]pyrimidin-4-yl)-2,6-diazaspiro[3.5]nonane-2-carbonyl)cyclopropane-1-carbonitrile], the 50% inhibitory concentration (IC50) on KRASwt and on KRASG12D was below 5 µM throughout.

Regarding `N#Cc1c(N)sc2c(F)ccc(-c3c(Cl)cc4c(N5CCCCC6(CN(C(=O)C7COC7)C6)C5)nc(OC[C@@]56CCCN5C[C@H](F)C6)nc4c3F)c12` [compound 293, 2-amino-4-(6-chloro-8-fluoro-2-(((2R,7aS)-2-fluorotetrahydro-1H-pyrrolizin-7a(5H)-yl)methoxy)-4-(2-(oxetane-3-carbonyl)-2,6-diazaspiro[3.6]decan-6-yl)quinazolin-7-yl)-7-fluorobenzo[b]thiophene-3-carbonitrile], the 50% inhibitory concentration (IC50) against KRASwt and at KRASG12D was below 5 µM throughout.

Turning to `N#Cc1c(N)sc2c(F)ccc(-c3c(Cl)cc4c(N5CCCCC6(CN(C(=O)N7CCC(F)(F)C7)C6)C5)nc(OC[C@@]56CCCN5C[C@H](F)C6)nc4c3F)c12` [compound 292, 2-amino-4-(6-chloro-4-(2-(3,3-difluoropyrrolidine-1-carbonyl)-2,6-diazaspiro[3.6]decan-6-yl)-8-fluoro-2-(((2R,7aS)-2-fluorotetrahydro-1H-pyrrolizin-7a(5H)-yl)methoxy)quinazolin-7-yl)-7-fluorobenzo[b]thiophene-3-carbonitrile], the half-inhibitory concentration (IC50) against KRASwt and against KRASG12D was below 5 µM in each case.

For the compound `Nc1nc2c(-c3c(Cl)cc4c(N5CCOC6(CCNCC6)C5)nc(OCC56CCCN5C[C@H](F)C6)nc4c3F)ccc(F)c2s1` (stereo partly drawn) [compound 129, 4-(6-chloro-8-fluoro-2-(((2R)-2-fluorotetrahydro-1H-pyrrolizin-7a(5H)-yl)methoxy)-4-(1-oxa-4,9-diazaspiro[5.5]undecan-4-yl)quinazolin-7-yl)-7-fluorobenzo[d]thiazol-2-amine], the IC50 against KRASwt and at KRASG12D was below 5 µM throughout.

As to `N#Cc1c(N)sc2c(F)ccc(-c3c(Cl)cc4c(N5CCCCC6(CN(C(=O)C78CC(C(F)(F)F)(C7)C8)C6)C5)nc(OC[C@@]56CCCN5C[C@H](F)C6)nc4c3F)c12` [compound 237, 2-amino-4-(6-chloro-8-fluoro-2-(((2R,7aS)-2-fluorotetrahydro-1H-pyrrolizin-7a(5H)-yl)methoxy)-4-(2-(3-(trifluoromethyl)bicyclo[1.1.1]pentane-1-carbonyl)-2,6-diazaspiro[3.6]decan-6-yl)quinazolin-7-yl)-7-fluorobenzo[b]thiophene-3-carbonitrile], the IC50 against KRASwt and against KRASG12D was below 5 µM in each case.

Consider `N#Cc1c(N)sc2c(F)ccc(-c3c(Cl)cc4c(N5CCCCC6(CN(C(=O)C7CC78CC8)C6)C5)nc(OC[C@@]56CCCN5C[C@H](F)C6)nc4c3F)c12` (stereo partly drawn) [compound 286, 2-amino-4-(6-chloro-8-fluoro-2-(((2R,7aS)-2-fluorotetrahydro-1H-pyrrolizin-7a(5H)-yl)methoxy)-4-(2-(spiro[2.2]pentane-1-carbonyl)-2,6-diazaspiro[3.6]decan-6-yl)quinazolin-7-yl)-7-fluorobenzo[b]thiophene-3-carbonitrile], for which the IC50 against KRASwt and at KRASG12D was below 5 µM each time.

As for `Cc1c(N)sc2c(F)ccc(-c3c(Cl)cc4c(N5CCOC6(CN(C(=O)/C(C#N)=C/c7ccoc7)C6)C5)nc(OC[C@@]56CCCN5C[C@H](F)C6)nc4c3F)c12` [compound 348, (E)-2-(8-(7-(2-amino-7-fluoro-3-methylbenzo[b]thiophen-4-yl)-6-chloro-8-fluoro-2-(((2R,7aS)-2-fluorotetrahydro-1H-pyrrolizin-7a(5H)-yl)methoxy)quinazolin-4-yl)-5-oxa-2,8-diazaspiro [3.5]nonane-2-carbonyl)-3-(furan-3-yl) acrylonitrile], the IC50 on KRASwt and against KRASG12D was below 5 µM each time.

As to `C[C@@H]1CN(C(=O)N2CC3(CCCCN(c4nc(OC[C@@]56CCCN5C[C@H](F)C6)nc5c(F)c(-c6ccc(F)c7sc(N)c(C#N)c67)c(Cl)cc45)C3)C2)CCO1` [compound 322, 2-amino-4-(6-chloro-8-fluoro-2-(((2R,7aS)-2-fluorotetrahydro-1H-pyrrolizin-7a(5H)-yl)methoxy)-4-(2-((R)-2-methylmorpholine-4-carbonyl)-2,6-diazaspiro[3.6]decan-6-yl)quinazolin-7-yl)-7-fluorobenzo[b]thiophene-3-carbonitrile], the IC50 at KRASwt and against KRASG12D was below 5 µM each time.

`C[C@H](Oc1nc(N2CCCC3(CNC3)C2)c2cc(Cl)c(-c3ccc(F)c4sc(N)c(C#N)c34)c(F)c2n1)[C@@H]1CCCN1C` [compound 122, 2-amino-4-(6-chloro-8-fluoro-2-((S)-1-((S)-1-methylpyrrolidin-2-yl)ethoxy)-4-(2,6-diazaspiro[3.5]nonan-6-yl)quinazolin-7-yl)-7-fluorobenzo[b]thiophene-3-carbonitrile]: the IC50 on KRASwt and on KRASG12D was below 5 µM each time.

In the case of `N#Cc1c(N)sc2c(F)ccc(-c3c(Cl)cc4c(N5CCCCC6(CN(C(=O)C7CC7(F)F)C6)C5)nc(OC[C@@]56CCCN5C[C@H](F)C6)nc4c3F)c12` (stereo partly drawn) [compound 154, 2-amino-4-(6-chloro-4-(2-(2,2-difluorocyclopropane-1-carbonyl)-2,6-diazaspiro[3.6]decan-6-yl)-8-fluoro-2-(((2R,7aS)-2-fluorotetrahydro-1H-pyrrolizin-7a(5H)-yl)methoxy)quinazolin-7-yl)-7-fluorobenzo[b]thiophene-3-carbonitrile], the half-maximal inhibitory concentration (IC50) against KRASwt and at KRASG12D was below 5 µM throughout.

As for `Cn1cc(C(=O)N2CC3(CCCCN(c4nc(OC[C@@]56CCCN5C[C@H](F)C6)nc5c(F)c(-c6ccc(F)c7sc(N)c(C#N)c67)c(Cl)cc45)C3)C2)c(C(F)F)n1` [compound 220, 2-amino-4-(6-chloro-4-(2-(3-(difluoromethyl)-1-methyl-1H-pyrazole-4-carbonyl)-2,6-diazaspiro[3.6]decan-6-yl)-8-fluoro-2-(((2R,7aS)-2-fluorotetrahydro-1H-pyrrolizin-7a(5H)-yl)methoxy)quinazolin-7-yl)-7-fluorobenzo[b]thiophene-3-carbonitrile], the IC50 against KRASwt and against KRASG12D was below 5 µM in each case.

For `CC(C)(O)C(F)(F)C(=O)N1CC2(CCCCN(c3nc(OC[C@@]45CCCN4C[C@H](F)C5)nc4c(F)c(-c5ccc(F)c6sc(N)c(C#N)c56)c(Cl)cc34)C2)C1` [compound 339, 2-amino-4-(6-chloro-4-(2-(2,2-difluoro-3-hydroxy-3-methylbutanoyl)-2,6-diazaspiro[3.6]decan-6-yl)-8-fluoro-2-(((2R,7aS)-2-fluorotetrahydro-1H-pyrrolizin-7a(5H)-yl)methoxy)quinazolin-7-yl)-7-fluorobenzo[b]thiophene-3-carbonitrile], the concentration for half-maximal inhibition (IC50) at KRASwt and against KRASG12D was below 5 µM each time.

Values taken from patent publication US20240109918A1, “HETEROCYCLIC COMPOUNDS AND USES THEREOF” (Kumquat Biosciences Inc., priority 2022, published 2024).
